In patent US9238688B2 (priority 2010, dated 2016):

Key:
[1] = tested on: hyaluronic acid synthase gene HAS2; assay: Expression of hyaluronic acid synthase gene HAS2, keratinocyte monolayer culture, real-time PCR; type: cell-based; conditions: human epidermal keratinocytes; final retinol concentration 10^−6 M or 10^−5 M; 6, 24 or 48 hours; Experimental Example 1
Protocol: (§1) Human epidermal keratinocytes (Cell Application Inc.) were seeded in a 24-well plate containing a human epidermal keratinocytes growth medium (Cell Application Inc.) so that the number of cells contained in a well was 1.5×10^5, and were cultured under the condition of 5% CO2-95% air and at 37° C. for about two days until the cells reached confluence.
(§2) Meanwhile, each tested substance was dissolved in a small amount of dimethylformamide and added to the medium, and the concentration of dimethylformamide in all experiments was adjusted to 0.1 wt %.
(§3) After culturing for a given time period, the keratinocytes were recovered and RNA was extracted therefrom. Then, the gene expression of hyaluronic acid synthases HAS2 and HAS3 were assessed by real-time PCR using the following primer pairs (Takara Bio Inc.): […]

[2] = tested on: hyaluronic acid synthase gene HAS3; assay: Expression of hyaluronic acid synthase gene HAS3, keratinocyte monolayer culture, real-time PCR; type: cell-based; conditions: human epidermal keratinocytes; final retinol concentration 10^−6 M or 10^−5 M; 6, 24 or 48 hours; Experimental Example 1
Protocol: as §1, §2, §3

SMILES | level of HAS2 gene expression (ratio to PPIA, control after 6 hours = 1) [1] | level of HAS3 gene expression (ratio to PPIA, control after 6 hours = 1) [2]
CC(=O)OC/C=C(C)/C=C/C=C(C)/C=C/C1=C(C)CCCC1(C)C [acetic acid retinol ester] | lower levels of gene expression as compared to the retinol-modified collagen | lower levels of gene expression as compared to the retinol-modified collagen
CCCCCCCCCCCCCCCC(=O)OC/C=C(C)/C=C/C=C(C)/C=C/C1=C(C)CCCC1(C)C [palmitic acid retinol ester] | lower levels of gene expression as compared to the retinol-modified collagen | lower levels of gene expression as compared to the retinol-modified collagen
